Reference: US6646008B1, “Treatment of disease states which result from neoplastic cell proliferation using PPAR-γ activators and compositions useful therefor” (The Salk Institute for Biological Studies, priority 1996, dated 2003)

Tests used:
NIH-PPARγ cells = assay: Adipocyte differentiation (oil red O lipid staining) of NIH-3T3 fibroblasts expressing PPARγ from a retroviral vector; assay type: cell-based; conditions: for % lipid containing cells: NIH-PPARγ cells, treated 7 days at confluence, 1 μM pioglitazone, 50 nM LG268, or 5 μM thiazolidinedione and 50 nM LG268, oil red O after four more days, range over three experiments
Description: Simultaneous exposure of competent cells to both PPARγ and RXR-specific ligand was investigated to determine if such combination might provide a stronger adipogenic signal than a PPARγ ligand alone. […] NIH-vector and NIH-PPARγ cells were cultured as described in the Examples.

LS175 cells = assay: Differentiation of primary liposarcoma cell strain LS175; assay type: cell-based, human; conditions: 10 μM pioglitazone, 7 days
Description: Liposarcomas have presumably acquired one or more genetic defects that interfere with the course of normal adipocyte development. The observation that PPARγ is expressed consistently in these tumors raised the possibility that the malignant cells might be forced to complete the differentiation program by maximally iactivating the PPARγ pathway. To address this possibility, primary cells isolated from three human liposarcomas were cultured in vitro. Primary cell strains LS857 and LS175 were derived from well differentiated liposarcomas and LS707 was derived from an intermediate grade myxoid/round cell liposarcoma (see Table 5). High grade pleomorphic liposarcoma cells could not be expanded to sufficient numbers to permit studies of differentiation. A primary leiomyosarcoma cell line LM203 was cultured as a control. To confirm that these cultures consisted of malignant tumor-derived cells, cytogenetic analysis was performed.
When cultured in the presence of fetal bovine serum and insulin, conditions permissive for adipocyte differentiation, all three cell lines maintain a fibroblastic morphology. LS175 cells contained small amounts of stainable lipid under these conditions. […] The degree of morphologically recognizable differentiation varied from 40% in the LS857 cells to 75% in the LS175 cells. […]

LS857 cells = assay: Differentiation of primary liposarcoma cell strain LS857 (lipid accumulation, morphology); assay type: cell-based, human; conditions: 7 days
NIH-vector cells = assay: Adipocyte differentiation (oil red O lipid staining) of NIH-vector cells; assay type: cell-based; conditions: for % lipid containing cells: NIH (vector) cells, treated 7 days at confluence, 1 μM pioglitazone, 50 nM LG268, or 5 μM thiazolidinedione and 50 nM LG268, oil red O after four more days, range over three experiments
Description: Simultaneous exposure of competent cells to both PPARγ and RXR-specific ligand was investigated to determine if such combination might provide a stronger adipogenic signal than a PPARγ ligand alone. […] It has previously been shown that wild-type NIH-3T3 cells express RXRα but not PPARγ. NIH-vector and NIH-PPARγ cells were cultured as described in the Examples. […] After an additional four days of culture, cells were fixed and stained with oil red O. Data are presented in Table 1 as the range of morphologically recognizable differentiation observed for each line over three separate experiments.

HL-60 cells [1] = assay: Cell cycle analysis of HL-60 cells by flow cytometry (DNA content); assay type: cell-based; conditions: for Cell Cycle Phase, % G1 / Cell Cycle Phase, % G2 / Cell Cycle Phase, % S: day 3, 100 nM 9-cis RA, 100 nM LG268, 3 μM PG-J2
Description: (§1) HL-60 cells were plated at a density of 2×10^5 cells/ml and were treated with:
(§2) 100 nM 9-cis retinoic acid (9-cis RA; which is both RAR and RXR active),
(§3) 100 nM LG268 (which is RXR selective),
(§4) 3 μM prostaglandin J2 (PG-J2; which is PPARγ active), or
(§5) a combination of 100 nM of LG268 and 3 μM of PG-J2.
Cell cycle analysis was carried out on day 3 using standard DNA content determination by flow cytometry.

HL-60 cells [2] = assay: Growth of HL-60 cells in the presence of ligands; assay type: cell-based; conditions: 100 nM 9-cis RA, 100 nM LG268, 3 μM PG-J2, cell numbers after 3, 5 or 7 days
Description: as §1, §2, §3, §4, §5
Cell numbers were determined after 3, 5 or 7 days of culture, as illustrated in FIG. 1.

THP-1 leukemia cells = assay: CD14 differentiation antigen flow cytometry in THP-1 cells; assay type: cell-based; conditions: 5 days, 100 nM LG268, 3 μM 15-deoxy-Δ12,14-prostaglandin-J2
Description: (§6) HL-60 and THP-1 leukemia cells were seeded at a ensity of 2×10^5 cells/ml and cultured in RPMI containing 10% charcoal-stripped fetal calf serum. Cells were treated with either vehicle alone, or 10 nM AM580, 100 nM LG268, or 3 μM 15-deoxy-Δ12,14-prostaglandin-J2. After 5 days, cells were incubated with monoclonal antibody to the monocyte-specific differentiation antigen CD14, and analyzed by flow cytometry using a Becton Dickinson FACScan.

HL-60 leukemia cells = assay: CD14 differentiation antigen flow cytometry in HL-60 cells; assay type: cell-based; conditions: 5 days, 10 nM AM580, 100 nM LG268, 3 μM 15-deoxy-Δ12,14-prostaglandin-J2
Description: as §6

Row | Compound | % lipid containing cells (NIH-PPARγ cells) | degree of morphologically recognizable differentiation (LS175 cells) | degree of morphologically recognizable differentiation (LS857 cells; 10 μM pioglitazone) | % lipid containing cells (NIH-vector cells) | adipocyte differentiation (NIH-PPARγ cells; confluent NIH-PPARγ cells, 7 days, 50 nM LG268 and/or 1 μM pioglitazone) | Cell Cycle Phase, % G1 (HL-60 cells [1]) | Cell Cycle Phase, % G2 (HL-60 cells [1]) | Cell Cycle Phase, % S (HL-60 cells [1]) | effect on cell growth (HL-60 cells [2]) | median fluorescence (CD14) (THP-1 leukemia cells) | median fluorescence (CD14) (HL-60 leukemia cells) | adipocyte differentiation (LS857 cells; 50 nM LG268, 10 μM pioglitazone) | lipid accumulation, oil red O, macroscopic view (LS857 cells; 5 μM thiazolidinedione (BRL 49653 or pioglitazone), 50 nM LG268, stained after four more days) | adipogenic effect (NIH-vector cells; NIH-vector cells) | effect on cell cycle progression (HL-60 cells [1]; day 3)
1 | CCc1ccc(CCOc2ccc(CC3SC(=O)NC3=O)cc2)nc1 (stereo not shown) [pioglitazone] | 60-70% | 75% | 40% | 0% |  |  |  |  |  |  |  |  |  |  | 
2 | Cc1cc2c(cc1C1(c3ccc(C(=O)O)cn3)CC1)C(C)(C)CCC2(C)C [LG268, 6-[1-(3,5,5,8,8-pentamethyl-5,6,7,8-tetrahydronaphthalen-2-yl)cyclopropyl]nicotinic acid] | 50-65% |  |  | 0% | significant stimulation of adipocyte differentiation | 54.5% | 14.4% | 31.1% | only a marginal ability to promote cell differentiation | 18 | 138 | significant degree of adipocyte differentiation | significant lipid accumulation | no effect | 
3 | AM580 |  |  |  |  |  |  |  |  |  |  | 26 |  |  |  | 
4 | CC1=C(/C=C/C(C)=C\C=C\C(C)=C\C(=O)O)C(C)(C)CCC1 [9-cis RA, 9-cis retinoic acid] |  |  |  |  |  | 70.5% | 10.2% | 19.2% | inhibit cell growth |  |  |  |  |  | inhibits cell cycle progression
